Assay results reported in publication PMC12514245, “Impaired migration and lung invasion of human melanoma by a novel small molecule targeting the transmembrane domain of death receptor p75^NTR” (EMBO Molecular Medicine, 2025).
Several values for one entry are separate records, joined by “and”; a condition that tells them apart may be missing. Equal entries are not always repeated.

Test system: A875 NT cells
Assay: Wound healing cell motility assay, A875 NT
Format: cell-based, human
Conditions: for Wound area (Fold): A875 NT
Description: For wound healing assay, cells were grown until confluency and subjected to a wound across the cell mono-layer. Cells were then incubated with serum-free media either with DMSO or a small molecule (with or without 5 µM Q_VD_poH) and imaged at specific time-points. Cell migration is reflected as fold change in wound area over time.

Oc1ccc(-c2cncc(Nc3ccc(Br)c(Cl)c3)n2)cc1 [Div17E5]
Wound area (Fold), Mean (10uM, 24 hours): 0.869 Fold | Wound area (Fold), individual replicates (10uM, 24 hours): 0.812 Fold and 0.927 Fold | Wound area (Fold) (1uM, 0 h, Mean): 1.000 Fold | Wound area (Fold) (1uM, 0 h, n1): 1.026 Fold | Wound area (Fold) (1uM, 0 h, n2): 0.960 Fold | Wound area (Fold) (1uM, 0 h, n3): 1.014 Fold | Wound area (Fold) (1uM, 3 h, Mean): 0.953 Fold | Wound area (Fold) (1uM, 3 h, n1): 0.950 Fold | Wound area (Fold) (1uM, 3 h, n2): 0.945 Fold | Wound area (Fold) (1uM, 3 h, n3): 0.963 Fold | Wound area (Fold) (1uM, 6 h, Mean): 0.896 Fold | Wound area (Fold) (1uM, 6 h, n1): 0.897 Fold | Wound area (Fold) (1uM, 6 h, n2): 0.884 Fold | Wound area (Fold) (1uM, 6 h, n3): 0.907 Fold | Wound area (Fold) (1uM, 9 h, Mean): 0.858 Fold | Wound area (Fold) (1uM, 9 h, n1): 0.855 Fold | Wound area (Fold) (1uM, 9 h, n2): 0.847 Fold | Wound area (Fold) (1uM, 9 h, n3): 0.872 Fold | Wound area (Fold) (1uM, 12 h, Mean): 0.818 Fold | Wound area (Fold) (1uM, 12 h, n1): 0.819 Fold | Wound area (Fold) (1uM, 12 h, n2): 0.796 Fold | Wound area (Fold) (1uM, 12 h, n3): 0.839 Fold | Wound area (Fold) (1uM, 15 h, Mean): 0.788 Fold | Wound area (Fold) (1uM, 15 h, n1): 0.792 Fold | Wound area (Fold) (1uM, 15 h, n2): 0.758 Fold | Wound area (Fold) (1uM, 15 h, n3): 0.814 Fold | Wound area (Fold) (1uM, 18 h, Mean): 0.765 Fold | Wound area (Fold) (1uM, 18 h, n1): 0.775 Fold | Wound area (Fold) (1uM, 18 h, n2): 0.730 Fold | Wound area (Fold) (1uM, 18 h, n3): 0.790 Fold | Wound area (Fold) (1uM, 21 h, Mean): 0.730 Fold | Wound area (Fold) (1uM, 21 h, n1): 0.735 Fold | Wound area (Fold) (1uM, 21 h, n2): 0.696 Fold | Wound area (Fold) (1uM, 21 h, n3): 0.758 Fold | Wound area (Fold) (1uM, 24 h, Mean): 0.705 Fold | Wound area (Fold) (1uM, 24 h, n1): 0.708 Fold | Wound area (Fold) (1uM, 24 h, n2): 0.669 Fold | Wound area (Fold) (1uM, 24 h, n3): 0.737 Fold | Wound area (Fold) (2uM, 0 h, Mean): 1.000 Fold | Wound area (Fold) (2uM, 0 h, n1): 0.9445 Fold | Wound area (Fold) (2uM, 0 h, n2): 1.024 Fold | Wound area (Fold) (2uM, 0 h, n3): 1.031 Fold | Wound area (Fold) (2uM, 3 h, Mean): 0.936 Fold | Wound area (Fold) (2uM, 3 h, n1): 0.9336 Fold | Wound area (Fold) (2uM, 3 h, n2): 0.9313 Fold | Wound area (Fold) (2uM, 3 h, n3): 0.9444 Fold | Wound area (Fold) (2uM, 6 h, Mean): 0.874 Fold | Wound area (Fold) (2uM, 6 h, n1): 0.8802 Fold | Wound area (Fold) (2uM, 6 h, n2): 0.851 Fold | Wound area (Fold) (2uM, 6 h, n3): 0.8894 Fold | Wound area (Fold) (2uM, 9 h, Mean): 0.841 Fold | Wound area (Fold) (2uM, 9 h, n1): 0.8687 Fold | Wound area (Fold) (2uM, 9 h, n2): 0.7852 Fold | Wound area (Fold) (2uM, 9 h, n3): 0.8693 Fold | Wound area (Fold) (2uM, 12 h, Mean): 0.798 Fold | Wound area (Fold) (2uM, 12 h, n1): 0.822 Fold | Wound area (Fold) (2uM, 12 h, n2): 0.7423 Fold | Wound area (Fold) (2uM, 12 h, n3): 0.8308 Fold | Wound area (Fold) (2uM, 15 h, Mean): 0.764 Fold | Wound area (Fold) (2uM, 15 h, n1): 0.7994 Fold | Wound area (Fold) (2uM, 15 h, n2): 0.707 Fold | Wound area (Fold) (2uM, 15 h, n3): 0.7869 Fold | Wound area (Fold) (2uM, 18 h, Mean): 0.723 Fold | Wound area (Fold) (2uM, 18 h, n1): 0.7549 Fold | Wound area (Fold) (2uM, 18 h, n2): 0.6745 Fold | Wound area (Fold) (2uM, 18 h, n3): 0.7404 Fold | Wound area (Fold) (2uM, 21 h, Mean): 0.674 Fold | Wound area (Fold) (2uM, 21 h, n1): 0.6977 Fold | Wound area (Fold) (2uM, 21 h, n2): 0.6158 Fold | Wound area (Fold) (2uM, 21 h, n3): 0.7086 Fold | Wound area (Fold) (2uM, 24 h, Mean): 0.637 Fold | Wound area (Fold) (2uM, 24 h, n1): 0.6671 Fold | Wound area (Fold) (2uM, 24 h, n2): 0.5815 Fold | Wound area (Fold) (2uM, 24 h, n3): 0.6623 Fold | wound healing assay (low micromolar and submicromolar concentrations): totally inactive
